Measurements from patent US12168055B2, “Sonosensitization” (priority 2019, dated 2024).
Read-outs that look alike come from different tables or passages of the source.

Legend:
[1] = system: U87 and U251 glioma cells, and U251^Oct-3/4 glioma stem-like cells; details: 5-ALA 1 mM + ultrasound 3 MHz, 2 W/cm^2, 20% duty cycle, 3 min; cited from earlier work
C6 glioma cells = details: 5-ALA 60 mg/kg or Radachlorin 40 mg/kg + ultrasound 1.0 MHz, 2.65 W/cm^2, 20 min; vs control groups; cited from earlier work
SAS cells = details: cited from earlier work; for cell viability: about 2 W/cm^2, 2 min
[2] = system: rat osteosarcoma UMR-106 cells; details: 5-ALA 250 mg/kg i.v. 8 h before ultrasound 1.0 MHz, 2.5 W/cm^2, 8 min daily for 10 days; vs all other groups; cited from earlier work
[3] = system: human U87 glioma cells or U251^Oct-3/4 glioma stem-like cells; details: 5-ALA 100 mg/kg + ultrasound 2.2 MHz, 0.5 or 2.0 W/cm^2, 3 min, weekly for 3 weeks; cited from earlier work
normal control cells = details: 5-ALA 1 mM + ultrasound 3 MHz, 2 W/cm^2, 20% duty cycle, 3 min; cited from earlier work
C6 rat glioma cells = details: 5-ALA 100 mg/kg orally 3 h before ultrasound 1.04 MHz, 10 W/cm^2, 5 min; vs 5-ALA or ultrasound alone; cited from earlier work
normal brain tissue = details: cited from earlier work
[4] = system: human THP-1 monocytes (induced to become macrophages and foam cells); details: berberine 30 μg/mL, ultrasound 1.0 MHz, 0.4 W/cm^2, 10 min; cited from earlier work
mammary tumors = details: porfimer sodium 2.5 mg/kg or higher i.v. 24 h before ultrasound 1.92 MHz, 15 min, 3 W/cm^2 or higher; cited from earlier work

Protocol for C6 glioma tumor cells: Male Wistar rats received injections of 4×10^5 C6 glioma tumor cells by injection into the right cortex of the brain. On day 7 after injection, rats were administered 5-aminolevulinic acid (20 mg/kg or 0 mg/kg, Levulan®, DUSA Pharmaceuticals, Wilmington, MA) orally, three hours prior to treatment.
Rats were anesthetized and set inside an MRI-guided focused ultrasound system (“FUS”, RK300, FUS Instruments, Toronto, Canada), having a 25 mm diameter spherically curved transducer (resonant frequency f0=1.06 MHz, focal number=0.8). The FUS, with rat, was then inserted into a 7 Telsa MRI system (Brucker BioSpec 70/30 USR, Bruker Ltd., Milton, Ontario, Canada). The MRI was used to precisely aim the FUS device at the brain tumor. Rats were then sonicated at one of four spatial peak temporal average intensities (ISPTA) (6.9 W/cm^2, 13.8 W/cm^2, 27.6 W/cm^2, or 55.2 W/cm^2) for 20 minutes. One group (N=6) was cyclicly sonicated at 27.6 W/cm^2 for 20 minutes, divided into 16 sonication periods of 85 seconds, separated by rest periods of 60 seconds (the multiple point, or “MP” group). In the MP group, 16 individual points within the tumor were sonicated. Control groups (N=5 each) received 5-ALA without FUS treatment, FUS treatment without 5-ALA, or neither 5-ALA nor FUS. Tumor temperature was monitored during sonication using magnetic resonance thermometry. Normalized tumor volume was measured by MRI on days 7, 14, 21, 28, and 35 following injection.

## NCC(=O)CCC(=O)O [5-ALA, 5-aminolevulinic acid]
[1]
  cytotoxicity to tumor cells: substantially cytotoxic to all tumor cells tested
C6 glioma tumor cells; 5-ALA 20 mg/kg + FUS 27.6 W/cm^2, 16 points, 16 periods of 85 s with 60 s rest
  survival, multiple point (MP) group: greatest increase in survival
C6 glioma tumor cells; 5-ALA 20 mg/kg orally 3 h before FUS (1.06 MHz, 20 min), all experimental groups
  survival: improved survival
C6 glioma tumor cells; 5-ALA 20 mg/kg orally 3 h before FUS (1.06 MHz, 20 min), all experimental groups vs control animals
  tumor growth: inhibited tumor growth
C6 glioma tumor cells; 5-ALA 20 mg/kg, sonication at 55.2 W/cm^2
  tissue damage: suffered tissue damage
C6 glioma tumor cells; 5-ALA only group (20 mg/kg orally), no FUS
  normalized tumor volume: 24+6 mm^3
C6 glioma tumor cells; MP group: 5-ALA 20 mg/kg + FUS 27.6 W/cm^2 at 16 points
  subjects surviving past 60 days: 50%
C6 glioma cells
  tumor size: significantly smaller in size
SAS cells; 10 μg/mL 5-ALA added to ultrasound, vs ultrasound alone
  SAS cell apoptosis, intracellular reactive oxygen species, and lipid peroxidation: significantly increased these effects
SAS cells; 5-ALA 1 μg/mL 4 h before ultrasound 1.05 MHz
  cell viability: 88%
SAS cells; 5-ALA 10 μg/mL 4 h before ultrasound 1.05 MHz
  cell viability: 75%
SAS cells; 5-ALA 50 μg/mL 4 h before ultrasound 1.05 MHz
  cell viability: 62%
[2]
  tumor volumes: significantly smaller than all other groups
[3]
  survival of treated mice: significantly improved the survival
Normal control cells
  cytotoxicity to normal control cells: not to normal control cells
C6 rat glioma cells
  tumor size: significantly smaller tumors

## O=C([O-])c1c(Cl)c(Cl)c(Cl)c(Cl)c1-c1c2cc(I)c(=O)c(I)c-2oc2c(I)c([O-])c(I)cc12.[Na+].[Na+] [Rose Bengal]
Normal brain tissue; Rose Bengal 10 mg/kg, ultrasound 110 W/cm^2, 3 min
  rats displaying lesions: 5/5
Normal brain tissue; Rose Bengal 10 mg/kg, ultrasound 110 W/cm^2, 5 min
  rats displaying lesions: 6/7
Normal brain tissue; Rose Bengal 50 mg/kg, ultrasound 110 W/cm^2, 3 min
  rats displaying lesions: 5/5
Normal brain tissue; Rose Bengal 50 mg/kg, ultrasound 110 W/cm^2, 5 min
  rats displaying lesions: 6/6
Normal brain tissue; ultrasound 25 W/cm^2, with or without Rose Bengal
  lesions in normal brain tissue: no lesions

## COc1ccc2cc3[n+](cc2c1OC)CCc1cc2c(cc1-3)OCO2 [berberine]
[4]
  autophagy in macrophages: induced autophagy in macrophages
  cholesterol efflux: increased cholesterol efflux

## porfimer sodium
Mammary tumors
  tumor growth: effectively inhibited tumor growth
